For data set [1], the target named is RNA-directed RNA polymerase (Hepacivirus hominis, UniProt O39930). The data set can be described thus: Inhibitory concentration against Hepatitis C virus NS5B polymerase.
Data set [2] is described as follows: Half-life in rat after 5 mpk dosage administration. The data set is classed as ADME, organism-based. The conditions noted are these: in vivo, 5 mg/kg.
A short description of data set [3]: Clearance at low levels in rat after 5 mpk dosage administration. In kind it is ADME, organism-based. The conditions noted are these: in vivo, 5 mg/kg.
The nature of data set [4]: Maximum concentration in plasma levels in rat after 5 mpk dosage administration. The note with it: 5 mg/kg. The data set is classed as ADME, organism-based. More on the design: dose 5 mpk.
Data set [5] can be described thus: Bioavailability in rat (dose 5 mg/kg). The note with it: in vivo. The data set is classed as ADME, organism-based.
Data set [6] relates to Hepatitis C virus. The data set is described as follows: Effective concentration against Hepatitis C virus replication using sub-genomic replicon assay. The note with it: read-out: ED50 (the source's name). In kind it is functional, Hepacivirus hominis.
For data set [7], the system named is Hepatitis C virus. The data set is described as follows: Cytotoxic concentration against Hepatitis C virus replication using sub-genomic replicon assay. In kind it is functional, Hepacivirus hominis. On the technique in general: In antiviral work, replicon cells carry a viral genome segment that copies itself.

RNA-directed RNA polymerase, sequence (O39930 whole entry): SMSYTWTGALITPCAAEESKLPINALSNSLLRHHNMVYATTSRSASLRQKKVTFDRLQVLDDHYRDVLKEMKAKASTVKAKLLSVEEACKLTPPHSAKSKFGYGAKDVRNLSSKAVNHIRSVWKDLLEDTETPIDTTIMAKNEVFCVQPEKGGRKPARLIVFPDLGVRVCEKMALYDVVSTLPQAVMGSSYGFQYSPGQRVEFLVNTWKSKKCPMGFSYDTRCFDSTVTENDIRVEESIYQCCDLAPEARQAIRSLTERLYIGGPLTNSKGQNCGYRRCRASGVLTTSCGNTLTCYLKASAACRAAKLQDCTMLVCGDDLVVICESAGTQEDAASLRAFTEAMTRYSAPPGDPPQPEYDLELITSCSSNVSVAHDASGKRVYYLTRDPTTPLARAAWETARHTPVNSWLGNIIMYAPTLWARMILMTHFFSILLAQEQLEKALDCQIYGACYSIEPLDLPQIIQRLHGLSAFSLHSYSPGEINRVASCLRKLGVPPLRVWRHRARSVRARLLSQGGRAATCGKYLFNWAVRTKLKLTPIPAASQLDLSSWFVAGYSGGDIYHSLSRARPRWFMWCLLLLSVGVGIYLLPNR

As to `O=C(O)/C(=C/c1ccc(Oc2ccccc2Br)cc1)NC(=O)c1ccccc1`, in data set [1], the IC50 turned out to be 0.1 µM. The half-life in data set [2] was 1.5 h. Further, the clearance in data set [3] was 3.33 mL/min/kg. Moreover, the Cmax in data set [4] came to 9 µM. Moreover, the bioavailability in data set [5] was 21%. In addition, the EC50 in the data set with Hepatitis C virus [6] amounted to 28 µM. In addition, the CC50 in the data set on Hepatitis C virus [7] is above 100 µM.

As for `COc1ccccc1Oc1ccc(/C=C(\NC(=O)c2ccccc2)C(=O)O)cc1`, the IC50 in data set [1] amounted to 15 µM.

The molecule `O=C(O)/C(=C/c1ccc(-c2ccccc2[N+](=O)[O-])o1)NC(=O)c1ccccc1` yielded an IC50 in data set [1] of 6.9 µM.

For the molecule `NS(=O)(=O)c1ccc(-c2ccc(/C=C(\NC(=O)c3ccccc3)C(=O)O)o2)cc1`, the IC50 in data set [1] was above 100 µM.

In data set [1], `O=C(O)/C(=C/c1ccc(-c2ccccc2)o1)NC(=O)c1ccccc1` showed an IC50 of 6.7 µM. The EC50 in the data set with Hepatitis C virus [6] was above 100 µM. For the same molecule, in the data set on Hepatitis C virus [7], the CC50 is above 100 µM.

Take `O=C(O)/C(=C/c1ccc(-c2ccccc2F)o1)NC(=O)c1ccccc1`: in data set [1], the half-inhibitory concentration (IC50) was found to be 3.1 µM.

`O=C(O)/C(=C/c1ccc(Oc2c(F)cccc2Cl)cc1)NC(=O)c1ccccc1`: in data set [1], half-maximal inhibition (IC50) required 0.07 µM.

In data set [1], `CC(C)c1ccccc1Oc1ccc(/C=C(\NC(=O)c2ccccc2)C(=O)O)cc1` displayed an IC50 of 28 µM.

Turning to `O=C(O)/C(=C/c1ccc(Oc2ccccc2-c2ccccc2)cc1)NC(=O)c1ccccc1`, in data set [1], the midpoint of inhibition, the IC50, lay at 48 µM.

As to `O=C(O)/C(=C/c1ccc(-c2ccc(CO)cc2)o1)NC(=O)c1ccccc1`, the IC50 in data set [1] was above 100 µM.

In data set [1], `O=C(O)/C(=C/c1ccc(-c2ccc(OC(F)(F)F)cc2)o1)NC(=O)c1ccccc1` showed an IC50 of 22 µM.

The molecule `O=C(O)/C(=C/c1ccc(-c2cccc(F)c2)o1)NC(=O)c1ccccc1` came in with an IC50 in data set [1] of 3.9 µM.

With `O=C(O)/C(=C/c1ccc(-c2ccccc2F)s1)NC(=O)c1ccccc1`, the IC50 in data set [1] came to 2.6 µM.

Consider `O=C(O)/C(=C/c1ccc(Oc2ccccc2F)cc1)NC(=O)c1ccccc1`, for which the midpoint of inhibition in data set [1], the IC50, lay at 6.9 µM.

In data set [1], `O=C(O)/C(=C/c1ccc(-c2ccc(Cl)cc2)o1)NC(=O)c1ccccc1` had an IC50 of 4.6 µM.

In data set [1], `O=C(O)/C(=C/c1ccc(-c2ccccc2OC(F)(F)F)o1)NC(=O)c1ccccc1` yielded an IC50 of 4 µM.

In turn, `CSc1ccc(-c2ccc(/C=C(\NC(=O)c3ccccc3)C(=O)O)o2)cc1` came in with an IC50 in data set [1] of 27 µM.

With `O=C(O)/C(=C/c1ccc(-c2ccccc2)s1)NC(=O)c1ccccc1`, in data set [1], half-maximal inhibition (IC50) was put at 1.5 µM.

Molecule `CSc1ccccc1Oc1ccc(/C=C(\NC(=O)c2ccccc2)C(=O)O)cc1` registered an IC50 in data set [1] of 1.8 µM.

`Cc1cccc(Cl)c1Oc1ccc(/C=C(\NC(=O)c2ccccc2)C(=O)O)cc1` came in with an IC50 in data set [1] of 0.2 µM.

`CC(C)Oc1ccccc1Oc1ccc(/C=C(\NC(=O)c2ccccc2)C(=O)O)cc1`: in data set [1], half-maximal inhibition (IC50) was put at 44 µM.

With `COc1ccccc1-c1ccc(/C=C(\NC(=O)c2ccccc2)C(=O)O)o1`, in data set [1], the IC50 was determined as 20 µM.

On to `O=C(O)/C(=C/c1ccc(Oc2c(Cl)cccc2[N+](=O)[O-])cc1)NC(=O)c1ccccc1`, for which 5.5 µM corresponded to half-maximal inhibition in data set [1] (IC50).

`O=C(O)/C(=C/c1cncc(-c2ccccc2Cl)c1)NC(=O)c1ccccc1` returned an IC50 in data set [1] above 100 µM.

As to `O=C(O)/C(=C/c1ccc(Oc2ccccc2Cl)cc1)NC(=O)c1ccccc1`, in data set [1], the IC50 is 0.2 µM. The half-life in data set [2] is 1.9 h. For the same molecule, the clearance in data set [3] is 5.17 mL/min/kg. Further, the peak level in data set [4] (Cmax) was 22 µM. In addition, the bioavailability in data set [5] was 42%. The EC50 with Hepatitis C virus [6] turned out to be 60 µM. The molecule also came in with a CC50 with Hepatitis C virus [7] above 100 µM.

Take `N#Cc1ccccc1Oc1ccc(/C=C(\NC(=O)c2ccccc2)C(=O)O)cc1`: the IC50 in data set [1] turned out to be 47 µM.

Regarding `O=C(O)/C(=C/c1ccc(-c2ccc([N+](=O)[O-])cc2)o1)NC(=O)c1ccccc1`, the IC50 in data set [1] is above 100 µM.

`NS(=O)(=O)c1cccc(-c2ccc(/C=C(\NC(=O)c3ccccc3)C(=O)O)o2)c1`: the IC50 in data set [1] is above 100 µM.

Regarding `O=C(O)/C(=C/c1ccc(Oc2ccccc2)cc1)NC(=O)c1ccccc1`, in data set [1], the IC50 is 17 µM.

`O=C(O)/C(=C/c1cccc(-c2ccccc2Cl)c1)NC(=O)c1ccccc1` came in with an IC50 in data set [1] of 1.3 µM.

In data set [1], `CC(C)(C)c1ccccc1Oc1ccc(/C=C(\NC(=O)c2ccccc2)C(=O)O)cc1` gave an IC50 above 100 µM.

The molecule `O=C(O)/C(=C/c1ccc(-c2cccc(OC(F)(F)F)c2)o1)NC(=O)c1ccccc1` showed an IC50 in data set [1] of 66 µM.

In data set [1], `O=C(O)/C(=C/c1ccc(-c2ccccc2Cl)s1)NC(=O)c1ccccc1` gave an IC50 of 0.66 µM.

As for `Cc1ccccc1-c1ccc(/C=C(\NC(=O)c2ccccc2)C(=O)O)o1`, in data set [1], the IC50 was determined as 3 µM.

`O=C(O)/C(=C/c1ccc(-c2cccc(Cl)c2)o1)NC(=O)c1ccccc1` came in with an IC50 in data set [1] of 6 µM.

The molecule `O=C(O)/C(=C/c1ccc(-c2ccccc2C(F)(F)F)o1)NC(=O)c1ccccc1` had an IC50 in data set [1] of 5.6 µM.

`O=C(O)/C(=C/c1ccc(-c2cccc([N+](=O)[O-])c2)o1)NC(=O)c1ccccc1`: half-maximal inhibition in data set [1] (IC50) required 25 µM.

For the molecule `O=C(O)/C(=C/c1ccc(-c2ccccc2CO)s1)NC(=O)c1ccccc1`, in data set [1], half-maximal inhibition (IC50) required 20 µM.

In the case of `O=C(O)/C(=C/c1ccc(-c2cccc(CO)c2)o1)NC(=O)c1ccccc1`, the IC50 in data set [1] is above 100 µM.

The molecule `O=C(O)/C(=C/c1ncc(-c2ccccc2Cl)s1)NC(=O)c1ccccc1` came in with an IC50 in data set [1] of 5.2 µM.

In data set [1], `O=C(O)/C(=C/c1ccc(Oc2c(F)cccc2Br)cc1)NC(=O)c1ccccc1` gave an IC50 of 0.03 µM. For the same molecule, in the data set on Hepatitis C virus [6], the EC50 is 50 µM. Moreover, the half-maximal cytotoxic concentration (CC50) in the data set on Hepatitis C virus [7] was above 100 µM.

`CCc1ccccc1Oc1ccc(/C=C(\NC(=O)c2ccccc2)C(=O)O)cc1` showed an IC50 in data set [1] of 9.4 µM.

Molecule `O=C(O)/C(=C/c1ccc(-c2cccc(C(F)(F)F)c2)o1)NC(=O)c1ccccc1` had an IC50 in data set [1] of 8.7 µM.

Regarding `O=C(O)/C(=C/c1ccc(Oc2ccccc2I)cc1)NC(=O)c1ccccc1`, half-maximal inhibition in data set [1] (IC50) was put at 0.04 µM. The EC50 with Hepatitis C virus [6] was found to be 29 µM. Besides, the CC50 in the data set with Hepatitis C virus [7] is above 100 µM.

In data set [1], `O=C(O)/C(=C/c1ccc(-c2ccc(F)cc2)o1)NC(=O)c1ccccc1` had an IC50 of 12 µM.

Regarding `O=C(O)/C(=C/c1ccc(Oc2ccccc2C(F)(F)F)cc1)NC(=O)c1ccccc1`, the IC50 in data set [1] stood at 1.3 µM.

As to `Nc1cccc(Cl)c1Oc1ccc(/C=C(\NC(=O)c2ccccc2)C(=O)O)cc1`, half-maximal inhibition in data set [1] (IC50) was put at 0.31 µM.

The molecule `O=C(O)/C(=C/c1ccc(-c2ccccc2Cl)o1)NC(=O)c1ccccc1` had an IC50 in data set [1] of 1.3 µM.

For the molecule `O=C(O)/C(=C/c1ccc(Oc2ccccc2[N+](=O)[O-])cc1)NC(=O)c1ccccc1`, the IC50 in data set [1] is 73 µM.

For `Cc1ccccc1-c1ccc(/C=C(\NC(=O)c2ccccc2)C(=O)O)s1`, the IC50 in data set [1] came to 1.4 µM.

With `Cc1ccccc1Oc1ccc(/C=C(\NC(=O)c2ccccc2)C(=O)O)cc1`, in data set [1], the IC50 was determined as 0.58 µM.

In data set [1], `O=C(O)/C(=C/c1ccc(-c2ccc(C(F)(F)F)cc2)o1)NC(=O)c1ccccc1` yielded an IC50 of 13 µM.

`O=C(O)/C(=C/c1cccc(-c2ccccc2Cl)n1)NC(=O)c1ccccc1` came in with an IC50 in data set [1] of 11 µM.

A word on the IC50: it is the concentration needed to halve the response being measured. A low value points to greater potency in that assay. By half-life is commonly meant the time in which the quantity being followed falls by half. Lower therefore signals fast loss. For orientation: clearance means the rate of elimination divided by the concentration. The low end stands for inefficient removal, the high end for efficient removal. The Cmax is the highest concentration seen after dosing. What is called bioavailability is dose-corrected exposure relative to a reference, in per cent. Low values mean little systemic uptake, high ones much systemic uptake. By CC50 is commonly meant the concentration that lowers cell viability or growth by half. A high value points to lower toxicity to the cells.

The values are drawn from ChEMBL document CHEMBL1140265, “Inhibitors of HCV NS5B polymerase. Part 1: Evaluation of the southern region of (2Z)-2-(benzoylamino)-3-(5-phenyl-2-furyl)acrylic acid” (Bioorg Med Chem Lett, 2005).
